Experimental findings from US8952163B2, “Substituted hydroxamic acids and uses thereof” (Millennium Pharmaceuticals, Inc., priority 2010, dated 2015) are described below.

SMILES strings stand for the structures.

The term inhibition denotes the change of the read-out against control, counted positive when it falls.

The target in the assay is T1, purified human HDAC6 (Homo sapiens, UniProt Q9UBN7).
T1 construct: purchased BPS Bioscience 5006
T1 sequence (Q9UBN7 1-1215): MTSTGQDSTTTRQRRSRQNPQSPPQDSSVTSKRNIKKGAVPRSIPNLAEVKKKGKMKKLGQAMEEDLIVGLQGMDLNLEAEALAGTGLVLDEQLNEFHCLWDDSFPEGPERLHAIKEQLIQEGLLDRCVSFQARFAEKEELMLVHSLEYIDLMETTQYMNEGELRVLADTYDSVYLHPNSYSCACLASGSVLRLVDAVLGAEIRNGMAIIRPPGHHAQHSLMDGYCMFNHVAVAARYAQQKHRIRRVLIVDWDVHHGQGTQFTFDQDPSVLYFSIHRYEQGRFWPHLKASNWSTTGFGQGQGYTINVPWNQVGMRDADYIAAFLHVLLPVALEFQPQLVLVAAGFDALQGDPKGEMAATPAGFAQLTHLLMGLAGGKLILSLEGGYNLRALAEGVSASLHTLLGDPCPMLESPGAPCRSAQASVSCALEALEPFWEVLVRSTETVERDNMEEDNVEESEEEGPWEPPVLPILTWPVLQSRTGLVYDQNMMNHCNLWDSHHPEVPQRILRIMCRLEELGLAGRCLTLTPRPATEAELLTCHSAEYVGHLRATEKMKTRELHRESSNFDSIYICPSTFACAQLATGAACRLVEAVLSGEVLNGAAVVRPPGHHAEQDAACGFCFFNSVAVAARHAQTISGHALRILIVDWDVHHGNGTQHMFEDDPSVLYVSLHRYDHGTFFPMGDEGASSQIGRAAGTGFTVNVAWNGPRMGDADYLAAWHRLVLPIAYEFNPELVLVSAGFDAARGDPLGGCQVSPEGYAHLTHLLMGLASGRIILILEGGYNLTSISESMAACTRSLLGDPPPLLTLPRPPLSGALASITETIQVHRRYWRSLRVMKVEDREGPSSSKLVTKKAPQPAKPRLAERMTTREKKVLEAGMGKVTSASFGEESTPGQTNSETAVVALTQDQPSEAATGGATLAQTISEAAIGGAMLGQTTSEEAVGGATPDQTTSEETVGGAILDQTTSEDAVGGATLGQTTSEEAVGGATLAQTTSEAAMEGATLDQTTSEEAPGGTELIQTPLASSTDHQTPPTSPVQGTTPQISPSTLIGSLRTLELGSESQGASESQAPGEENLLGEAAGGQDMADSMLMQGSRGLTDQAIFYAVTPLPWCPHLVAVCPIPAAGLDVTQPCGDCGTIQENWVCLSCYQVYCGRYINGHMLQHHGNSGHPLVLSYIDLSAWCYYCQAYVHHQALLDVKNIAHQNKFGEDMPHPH
The assay can be described thus: HDAC6 Enzyme Assay. Particulars: test compound at 1.235 μM; substrate Ac-Arg-Gly-Lys(Ac)-AMC, 1 hour at 30° C.; read-out: Percent Inhibition at 1.235 μM. The assay is classed as biochemical. The procedure: To measure the inhibition of HDAC6 activity, purified human HDAC6 (BPS Bioscience; Cat. No. 5006) is incubated with substrate Ac-Arg-Gly-Lys(Ac)-AMC peptide (Bachem Biosciences; Cat. No. I-1925) for 1 hour at 30° C. in the presence of test compounds or vehicle DMSO control. The reaction is stopped with the HDAC inhibitor trichostatin A (Sigma; Cat. No. T8552) and the amount of Arg-Gly-Lys-AMC generated is quantitated by digestion with trypsin (Sigma; Cat. No. T1426) and subsequent measurement of the amount of AMC released using a fluorescent plate reader (Pherastar, BMG Technologies) set at Ex 340 nm and Em 460 nm. Concentration response curves are generated by calculating the fluorescence increase in test compound-treated samples relative to DMSO-treated controls, and percentage inhibition values at a single concentration or enzyme inhibition (IC50) values are determined from those curves. One skilled in the art will appreciate that the values generated either as percentage inhibition at a single concentration or IC50 values are subject to experimental variation.
As for `Cc1nc(C(=O)N2CCc3ncc(C(=O)NO)cc3C2)cs1` [Compound I-1, N-hydroxy-6-[(2-methyl-1,3-thiazol-4-yl)carbonyl]-5,6,7,8-tetrahydro-1,6-naphthyridine-3-carboxamide], the inhibition at 1.235 µM worked out at 87.8%.
As for `CC(=O)N1CCc2nc(C(=O)NO)ccc2C1` [Compound I-2, 6-acetyl-N-hydroxy-5,6,7,8-tetrahydro-1,6-naphthyridine-2-carboxamide], the inhibition at 1.235 µM worked out at 34.1%.
In the case of `CC(C)(C)OC(=O)N1CCc2cc(C(=O)NO)cnc2C1` [Compound I-3, tert-butyl 3-[(hydroxyamino)carbonyl]-5,8-dihydro-1,7-naphthyridine-7(6H)-carboxylate], the inhibition at 1.235 µM came to 95.3%.
Under `O=C(NO)c1cnc2c(c1)CCN(C(=O)c1cc3ccccc3s1)C2` [Compound I-4, 7-(1-benzothien-2-ylcarbonyl)-N-hydroxy-5,6,7,8-tetrahydro-1,7-naphthyridine-3-carboxamide] stands 97.2%.
Under `O=C(NO)c1cnc2c(c1)CN(C(=O)c1sc3ccccc3c1Cl)CC2` [Compound I-5, 6-[(3-chloro-1-benzothien-2-yl)carbonyl]-N-hydroxy-5,6,7,8-tetrahydro-1,6-naphthyridine-3-carboxamide] stands 93.4%; under `Cc1nc(-c2ccccn2)sc1C(=O)N1CCc2nc(C(=O)NO)ccc2C1` [Compound I-6, N-hydroxy-6-[(4-methyl-2-pyridin-2-yl-1,3-thiazol-5-yl)carbonyl]-5,6,7,8-tetrahydro-1,6-naphthyridine-2-carboxamide], 81.4%.
Regarding `O=C(NO)c1ccc2c(n1)CCN(C(=O)c1[nH]c3ccccc3c1-c1ccccc1)C2` [Compound I-7, N-hydroxy-6-[(3-phenyl-1H-indol-2-yl)carbonyl]-5,6,7,8-tetrahydro-1,6-naphthyridine-2-carboxamide], the inhibition at 1.235 µM was 79%.
Under `Cc1ccccc1NC(=O)N1CCc2nc(C(=O)NO)ccc2C1` [Compound I-8, N^2-hydroxy-N^6-(2-methylphenyl)-7,8-dihydro-1,6-naphthyridine-2,6(5H)-dicarboxamide] stands 40.4%; under `CC1(C(=O)N2CCc3cc(C(=O)NO)cnc3C2)CCCCC1` [Compound I-9, N-hydroxy-7-[(1-methylcyclohexyl)carbonyl]-5,6,7,8-tetrahydro-1,7-naphthyridine-3-carboxamide], 95.2%.
Regarding `Cc1nc(C(=O)N2CCc3cc(C(=O)NO)cnc3C2)cs1` [Compound I-10, N-hydroxy-7-[(2-methyl-1,3-thiazol-4-yl)carbonyl]-5,6,7,8-tetrahydro-1,7-naphthyridine-3-carboxamide], the inhibition at 1.235 µM is 84.6%.
In the case of `Cn1cccc1C(=O)N1CCc2nc(C(=O)NO)ccc2C1` [Compound I-11, N-hydroxy-6-[(1-methyl-1H-pyrrol-2-yl)carbonyl]-5,6,7,8-tetrahydro-1,6-naphthyridine-2-carboxamide], the inhibition at 1.235 µM is 73.9%.
Under `O=C(NO)c1cnc2c(c1)CN(C(=O)c1ccc(Cl)cc1)CC2` [Compound I-12, 6-(4-chlorobenzoyl)-N-hydroxy-5,6,7,8-tetrahydro-1,6-naphthyridine-3-carboxamide] stands 94.5%; under `O=C(NO)c1ccc2c(n1)CCN(C(=O)NC13CC4CC(CC(C4)C1)C3)C2` [Compound I-13, N^6-[1-adamantyl]-N^2-hydroxy-7,8-dihydro-1,6-naphthyridine-2,6(5H)-dicarboxamide], 70.6%; under `O=C(NO)c1ccc2c(n1)CCN(C(=O)c1cc3ccccc3o1)C2` [Compound I-14, 6-(1-benzofuran-2-ylcarbonyl)-N-hydroxy-5,6,7,8-tetrahydro-1,6-naphthyridine-2-carboxamide], 89.9%.
For `O=C(NO)c1cnc2c(c1)CCN(C(=O)C13CC4CC(CC(C4)C1)C3)C2` [Compound I-15, 7-[1-adamantylcarbonyl]-N-hydroxy-5,6,7,8-tetrahydro-1,7-naphthyridine-3-carboxamide], the inhibition at 1.235 µM was 95.6%.
Under `CCC(C)NC(=O)N1CCc2nc(C(=O)NO)ccc2C1` (stereo not shown) [Compound I-16, N^6-(sec-butyl)-N^2-hydroxy-7,8-dihydro-1,6-naphthyridine-2,6(5H)-dicarboxamide] stands 27.3%.
Under `O=C(NO)c1ccc2c(n1)CCN(C(=O)NC1CCCCC1)C2` [Compound I-17, N^6-cyclohexyl-N^2-hydroxy-7,8-dihydro-1,6-naphthyridine-2,6(5H)-dicarboxamide] stands 41.2%.
Under `O=C(NO)c1cnc2c(c1)CCN(C(=O)c1cc3ccccc3o1)C2` [Compound I-18, 7-(1-benzofuran-2-ylcarbonyl)-N-hydroxy-5,6,7,8-tetrahydro-1,7-naphthyridine-3-carboxamide] stands 97.2%.
Take `CC1(C(=O)N2CCc3nc(C(=O)NO)ccc3C2)CCCCC1` [Compound I-19, N-hydroxy-6-[(1-methylcyclohexyl)carbonyl]-5,6,7,8-tetrahydro-1,6-naphthyridine-2-carboxamide]: the inhibition at 1.235 µM was 79.5%.
For `O=C(NO)c1cnc2c(c1)CN(Cc1ccccc1)CC2` [Compound I-20, 6-benzyl-N-hydroxy-5,6,7,8-tetrahydro-1,6-naphthyridine-3-carboxamide], the inhibition at 1.235 µM came out at 58.6%.
Under `CC(=O)N1CCc2cc(C(=O)NO)cnc2C1` [Compound I-21, 7-acetyl-N-hydroxy-5,6,7,8-tetrahydro-1,7-naphthyridine-3-carboxamide] stands 73.9%; under `O=C(NO)c1ccc2c(n1)CCN(C(=O)C13CC4CC(CC(C4)C1)C3)C2` [Compound I-22, 6-[1-adamantylcarbonyl]-N-hydroxy-5,6,7,8-tetrahydro-1,6-naphthyridine-2-carboxamide], 90.2%.
As for `Cc1nc(-c2ccccn2)sc1C(=O)N1CCc2ncc(C(=O)NO)cc2C1` [Compound I-23, N-hydroxy-6-[(4-methyl-2-pyridin-2-yl-1,3-thiazol-5-yl)carbonyl]-5,6,7,8-tetrahydro-1,6-naphthyridine-3-carboxamide], the figure is 92%; as for `Cn1cccc1C(=O)N1CCc2cc(C(=O)NO)cnc2C1` [Compound I-24, N-hydroxy-7-[(1-methyl-1H-pyrrol-2-yl)carbonyl]-5,6,7,8-tetrahydro-1,7-naphthyridine-3-carboxamide], 92.3%.
As for `O=C(NO)c1ccc2c(n1)CCN(C(=O)NCc1ccccc1)C2` [Compound I-25, N^6-benzyl-N^2-hydroxy-7,8-dihydro-1,6-naphthyridine-2,6(5H)-dicarboxamide], the figure is 60.4%; as for `O=C(NO)c1cnc2c(c1)CCN(C(=O)C13CC4CC(CC(O)(C4)C1)C3)C2` [Compound I-26, N-hydroxy-7-[(3-hydroxy-1-adamantyl)carbonyl]-5,6,7,8-tetrahydro-1,7-naphthyridine-3-carboxamide], 94%; as for `Cc1nc(C(=O)N2CCc3nc(C(=O)NO)ccc3C2)cs1` [Compound I-27, N-hydroxy-6-[(2-methyl-1,3-thiazol-4-yl)carbonyl]-5,6,7,8-tetrahydro-1,6-naphthyridine-2-carboxamide], 51.2%.
In the case of `O=C(NO)c1cnc2c(c1)CCN(C(=O)c1ccc(Cl)cc1)C2` [Compound I-28, 7-(4-chlorobenzoyl)-N-hydroxy-5,6,7,8-tetrahydro-1,7-naphthyridine-3-carboxamide], the inhibition at 1.235 µM came to 91.9%.
